From patent publication US20240270737A1, “SMALL MOLECULAR INHIBITORS OF STING SIGNALING COMPOSITIONS AND METHODS OF USE” (STINGINN INC., priority 2021, published 2024) come the findings set out here.

The subject of assay [1] is IFNβ expression (type I IFNβ promoter driving luciferase). Nature of the assay: IFNβ promoter luciferase assay in hTERT-pIFNβ-Glu cells transfected with ISD. It is filed as cell-based, human. The conditions noted are these: Homo sapiens. The protocol:
Inhibition of IFNβ expression was measured by Luciferase induction at 24 hours after transfection of ISD, DMSO is shown (230), ISD treatment only (220) was used as a control, according to an embodiment of the invention;
Inhibition of IFNβ expression was measured by Luciferase induction at 24 hours after transfection of ISD, Mock is shown (210), ISD treatment only (220) was used as a control, according to an embodiment of the invention;
Identification of small molecule inhibitors of STING. In the presence of cytosolic DNA species, STING becomes activated to drive the transcription of cytokines such as type I IFN. Compounds binding to STING via TSA were subsequently examined for their ability to prevent cytosolic DNA species from activating the type I interferon (IFN) promoter, using a live cell assay. This assay comprised immortalized human fibroblasts (hTERT) that were stably transfected with the type I IFN promoter driving luciferase as well as the CMV promoter driving SEAP (hTERT-pIFNβ-Glu). The live cell assay has previously been disclosed in PCT/US2019/025380 entitled IFN-Beta Reporter System for Immortalized Primary Cells inventor Glen N. Barber, which was filed Apr. 2, 2018 and published as WO2019195285, and which is herein incorporated by reference in its entirety and for all purposes. The ability of the small molecules to prevent activation of the type I IFN promoter and the transcription of luciferase, but not SEAP in response to cytosolic DNA species was assessed. The activation of STING, typically by CDNs, in turn activates the transcription factors NF-κB and IRF3, both of which are required to induce the transcriptional stimulation of the Type I IFN promoter, but not the CMV promoter as IRF3 and NF-kB transcription factor binding sites are not contained in the CMV promoter. The assay identified the small molecule Compound W1 in the first screen (HTS), where the level of luciferase was not able to activate the type I IFN promoter or induce the expression of luciferase (see Table I and Table II).
Inhibition of IFNβ expression was measured by Luciferase induction at 24 hours after transfection of ISD. ISD only treatment was used as control.
Inhibition of IFNβ expression was measured by Luciferase induction at 24 hours after transfection of ISD, Mock is shown (210), ISD treatment only (220) was used as a control.
Luciferase assay: hTERT-BJ1 Telomerase Fibroblasts stably expressing the luciferase gene under the control of the interferon-beta promoter and SEAP gene under control of the CMV promoter) (hTERT-pIFNβ-Glu) were generated by the Barber laboratory. Luciferase assay was performed using Secrete-Pair Dual Luminescence Assay Kit from GeneCopoeia following the manufacturer's protocol.

Assay [2] deals with pIRF3, pSTING. Nature of the assay: Western blot of pIRF3, pSTING, pTBK1 after ISD transfection in hTERT cells. It is filed as cell-based, human. As to conditions: Homo sapiens. As to the method: FIG. 1C are photographs showing Western blot analysis of STING, phospho-TBK1 (pTBK1) and phospho-IRF3 (pIRF3) performed at 6 hours after ISD transfection with/without W1 treatment same as FIG. 1A, Mock is shown (210), ISD treatment only (220) was used as a control, according to an embodiment of the invention;
Immunoblot analysis: Equal amounts of proteins were resolved on sodium dodecyl sulfate (SDS)-Polyacrylamide gels and then transferred to polyvinylidene fluoride (PVDF) membranes (Millipore). After blocking with 5% Blocking Reagent, membranes were incubated with various primary antibodies (and appropriate secondary antibodies). The image was resolved using an enhanced chemiluminescence system ECL (Thermo Scientific) and detected by autoradiography (Kodak). Antibodies: rabbit polyclonal antibody against STING was developed in our laboratory as described previously in Ishikawa et al, 2008; other antibodies were obtained from following sources: β-actin (Sigma Aldrich), p-IRF3 (Cell Signaling), IRF3 (Santa Cruz Biotechnology), p-p65 (Cell Signaling), p65 (Cell Signaling), p-TBK1 (Cell Signaling), TBK1 (Abcam), cGAS (Cell Signaling).

`Cc1cc(N2CCN(Cc3csc(-c4ccccc4)n3)CC2)nc(N(C)C)n1` [Compound W6, N,N,4-trimethyl-6-{4-[(2-phenyl-1,3-thiazol-4-yl)methyl]piperazin-1-yl}pyrimidin-2-amine]: in assay [1], the inhibition at 5 µM is -34%. For the compound `Cc1cc(N2CCN(Cc3csc(-c4ccc(C(C)(F)F)cc4)n3)CC2)nc(N(C)C)n1` [Compound W32, 4-[4-({2-[4-(1.1-difluoroethyl)phenyl]-1.3-thiazol-4-yl}methyl)piperazin-1-yl]-N.N.6-trimethylpyrimidin-2-amine], the inhibition at 5 µM in assay [1] is 70%. The same measure, in the same setting: under `COc1cc(N2CCN(Cc3csc(-c4ccc(OC)c(OC)c4)n3)CC2)nc(N(C)C)n1` [Compound W27, 4-(4-{[2-(3,4-dimethoxyphenyl)-1,3-thiazol-4-yl]methyl}piperazin-1-yl)-6-methoxy-N,N-dimethylpyrimidin-2-amine] stands -64%.

For `Cc1cc(N2CCN(Cc3cnc(-c4ccccc4)s3)CC2)nc(N(C)C)n1` [Compound W19, N,N,4-trimethyl-6-{4-[(2-phenyl-1,3-thiazol-5-yl)methyl]piperazin-1-yl}pyrimidin-2-amine], the inhibition at 5 µM in assay [1] was found to be 76%. For the same compound, the inhibition at 10 µM in assay [2] is less than 10%. Turning to `COc1cccc(-c2nc(CN3CCN(c4cc(C)nc(N(C)C)n4)CC3)cs2)c1` [Compound W8, 4-(4-{[2-(3-methoxyphenyl)-1,3-thiazol-4-yl]methyl}piperazin-1-yl)-N,N,6-trimethylpyrimidin-2-amine], in assay [1], the inhibition at 5 µM was -59%. Take `Cc1cc(N2CCN(Cc3csc(-c4ccc(C(C)C)cc4)n3)CC2)nc(N(C)C)n1` [Compound W29, N.N.4-trimethyl-6-[4-({2-[4-(propan-2-yl)phenyl]-1.3-thiazol-4-yl}methyl)piperazin-1-yl]pyrimidin-2-amine]: the inhibition at 5 µM in assay [1] was found to be 50%. The same measure, in the same setting: under `COc1ccc(-c2nc(CN3CCN(c4cc(C(F)(F)F)nc(N(C)C)n4)CC3)cs2)cc1OC` [Compound W28, 4-(4-{[2-(3,4-dimethoxyphenyl)-1,3-thiazol-4-yl]methyl}piperazin-1-yl)-N,N-dimethyl-6-(trifluoromethyl)pyrimidin-2-amine] stands -89%; under `CNc1nc(C)cc(N2CCN(Cc3csc(-c4ccc(OC)c(OC)c4)n3)CC2)n1` [Compound W23, 4-(4-{[2-(3,4-dimethoxyphenyl)-1,3-thiazol-4-yl]methyl}piperazin-1-yl)-N,6-dimethylpyrimidin-2-amine], -33%; under `COc1cc(C(F)(F)F)ccc1-c1nc(CN2CCN(c3cc(C)nc(N(C)C)n3)CC2)cs1` [Compound W31, 4-[4-({2-[2-methoxy-4-(trifluoromethyl)phenyl]-1.3-thiazol-4-yl}methyl)piperazin-1-yl]-N.N.6-trimethylpyrimidin-2-amine], 60%. As to `Cc1cc(N2CCN(Cc3csc(-c4ccc(C(F)(F)Cl)cc4)n3)CC2)nc(N(C)C)n1` [Compound W34, 4-[4-({2-[4-(chlorodifluoromethyl)phenyl]-1.3-thiazol-4-yl}methyl)piperazin-1-yl]-N.N.6-trimethylpyrimidin-2-amine], in assay [1], the inhibition at 5 µM stood at 50%. Consider `Cc1cc(N2CCN(Cc3csc(-c4ccc(S(C)(=O)=O)cc4)n3)CC2)nc(N(C)C)n1` [Compound W12, 4-(4-{[2-(4-methanesulfonylphenyl)-1,3-thiazol-4-yl]methyl}piperazin-1-yl)-N,N,6-trimethylpyrimidin-2-amine], for which the inhibition at 5 µM in assay [1] was -40%.

With `Cc1cc(N2CCN(Cc3csc(-c4ccc(CC(F)(F)F)cc4)n3)CC2)nc(N(C)C)n1` [Compound W33, N.N.4-trimethyl-6-[4-({2-[4-(2.2.2-trifluoroethyl)phenyl]-1.3-thiazol-4-yl}methyl)piperazin-1-yl]pyrimidin-2-amine], in assay [1], the inhibition at 5 µM is 65%.

As for `Cc1cc(N2CCN(Cc3csc(-c4ccc5c(c4)OCO5)n3)CC2)nc(N(C)C)n1` [Compound W9, 4-(4-{[2-(2H-1,3-benzodioxol-5-yl)-1,3-thiazol-4-yl]methyl}piperazin-1-yl)-N,N,6-trimethylpyrimidin-2-amine], in assay [1], the inhibition at 5 µM was -40%. Turning to `Cc1cc(N2CCN(Cc3noc(-c4ccccc4)n3)CC2)nc(N(C)C)n1` [Compound W16, N,N,4-trimethyl-6-{4-[(5-phenyl-1,2,4-oxadiazol-3-yl)methyl]piperazin-1-yl}pyrimidin-2-amine], the inhibition at 5 µM in assay [1] was found to be 26%. As to `Cc1cc(N2CCN(Cc3coc(-c4ccccc4)n3)CC2)nc(N(C)C)n1` [Compound W18, N,N,4-trimethyl-6-{4-[(2-phenyl-1,3-oxazol-4-yl)methyl]piperazin-1-yl}pyrimidin-2-amine], the inhibition at 5 µM in assay [1] is -82%. With `COc1ccc(-c2nc(CN3CCN(c4cc(C)nc(N5CCCC5)n4)CC3)cs2)cc1OC` [Compound W24, 4-(4-{[2-(3,4-dimethoxyphenyl)-1,3-thiazol-4-yl]methyl}piperazin-1-yl)-6-methyl-2-(pyrrolidin-1-yl)pyrimidine], the inhibition at 5 µM in assay [1] was -26%. For `Cc1cc(N2CCN(Cc3csc(-c4ccc(C#N)cc4)n3)CC2)nc(N(C)C)n1` [Compound W10, 4-[4-({4-[2-(dimethylamino)-6-methylpyrimidin-4-yl]piperazin-1-yl}methyl)-1,3-thiazol-2-yl]benzonitrile], the inhibition at 5 µM in assay [1] is -62%. Turning to `COc1ccc(-c2nc(CN3CCN(c4cc(C(C)C)nc(N(C)C)n4)CC3)cs2)cc1OC` [Compound W26, 4-(4-{[2-(3,4-dimethoxyphenyl)-1,3-thiazol-4-yl]methyl}piperazin-1-yl)-N,N-dimethyl-6-(propan-2-yl)pyrimidin-2-amine], the inhibition at 5 µM in assay [1] is -120%. As to `Cc1cc(N2CCN(Cc3csc(-c4ccc(C5CC5)cc4)n3)CC2)nc(N(C)C)n1` [Compound W30, 4-(4-{[2-(4-cyclopropylphenyl)-1.3-thiazol-4-yl]methyl}piperazin-1-yl)-N.N.6-trimethylpyrimidin-2-amine], the inhibition at 5 µM in assay [1] was found to be 50%. In the case of `COc1ccc(-c2nc(CN3CCN(c4cc(C)nc(N(C)C)n4)CC3)cs2)cc1` [Compound W7, 4-(4-{[2-(4-methoxyphenyl)-1,3-thiazol-4-yl]methyl}piperazin-1-yl)-N,N,6-trimethylpyrimidin-2-amine], in assay [1], the inhibition at 5 µM is -11%.

`CCc1cc(N2CCN(Cc3csc(-c4ccc(OC)c(OC)c4)n3)CC2)nc(N(C)C)n1` [Compound W25, 4-(4-{[2-(3,4-dimethoxyphenyl)-1,3-thiazol-4-yl]methyl}piperazin-1-yl)-6-ethyl-N,N-dimethylpyrimidin-2-amine]: in assay [1], the inhibition at 5 µM was -126%. As for `Cc1cc(N2CCN(Cc3csc(-c4ccc5c(c4)OCC5)n3)CC2)nc(N(C)C)n1` [Compound W35], the inhibition at 5 µM in assay [1] was 0%. On to `Cc1cc(N2CCN(Cc3cnc(-c4ccccc4)o3)CC2)nc(N(C)C)n1` [Compound W17, N,N,4-trimethyl-6-{4-[(2-phenyl-1,3-oxazol-5-yl)methyl]piperazin-1-yl}pyrimidin-2-amine], for which, in assay [1], the inhibition at 5 µM is 2%. On the same count and under the same terms, the value for `COc1ccc(-c2nc(CN3CCN(c4cc(C)nc(C(C)C)n4)CC3)cs2)cc1OC` [Compound W2] was -4%; that for `CCN(CC)c1nc(C)cc(N2CCN(Cc3csc(-c4ccc(OC)c(OC)c4)n3)CC2)n1` [Compound W22, 4-(4-{[2-(3,4-dimethoxyphenyl)-1,3-thiazol-4-yl]methyl}piperazin-1-yl)-N,N-diethyl-6-methylpyrimidin-2-amine] was 28%; that for `CCN(C)c1nc(C)cc(N2CCN(Cc3csc(-c4ccc(OC)c(OC)c4)n3)CC2)n1` [Compound W21, 4-(4-{[2-(3,4-dimethoxyphenyl)-1,3-thiazol-4-yl]methyl}piperazin-1-yl)-N-ethyl-N,6-dimethylpyrimidin-2-amine] was -84%.

A word on the inhibition: it is the change of the read-out against control, counted positive when it falls.
